Entries after “also recorded” stand apart in the source; their conditions may differ.
Experiments:
[1] = Liver microsomal stability, SD rat; assay type: in vitro ADME; settings: Sprague-Dawley, liver microsomes, pH 7.4, 0.5 mg/mL
Description: (§1) Samples were analyzed using UPLC-MS/MS.

OCT2 = settings: cited from earlier work
OCT1 = settings: cited from earlier work
MATE1 = settings: cited from earlier work
ENT4 = ENT4 (Homo sapiens, UniProt Q7RTT9); assay: Nucleoside transporter uptake, ENT4-transfected MDCK cells
ENT4, sequence (Q7RTT9 whole entry): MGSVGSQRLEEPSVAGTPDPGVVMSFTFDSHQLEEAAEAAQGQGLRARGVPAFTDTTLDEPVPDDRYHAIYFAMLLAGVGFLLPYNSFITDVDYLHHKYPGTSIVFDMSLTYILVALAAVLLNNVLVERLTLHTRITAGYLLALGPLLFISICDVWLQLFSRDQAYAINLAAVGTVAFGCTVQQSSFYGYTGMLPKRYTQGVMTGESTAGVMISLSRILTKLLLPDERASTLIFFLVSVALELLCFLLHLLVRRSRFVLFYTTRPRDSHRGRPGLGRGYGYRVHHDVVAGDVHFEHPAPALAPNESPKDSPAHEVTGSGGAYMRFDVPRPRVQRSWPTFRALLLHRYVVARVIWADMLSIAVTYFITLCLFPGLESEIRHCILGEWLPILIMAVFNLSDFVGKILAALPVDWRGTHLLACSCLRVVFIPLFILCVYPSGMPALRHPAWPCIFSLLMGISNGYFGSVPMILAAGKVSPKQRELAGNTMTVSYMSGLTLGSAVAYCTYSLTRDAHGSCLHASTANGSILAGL

[2] = assay type: in vitro ADME, human, rat, mouse, dog, monkey
Description: as §1

CNT2 = target: T1, CNT2 (Homo sapiens, UniProt O43868); assay: Nucleoside transporter uptake, CNT2-transfected MDCK cells; assay type: in vitro ADME; settings: for Uptake compared to control cells: CNT2-transfected cells
T1 construct: expressed in transfected cells; host or cells: MDCK-II
T1 sequence (O43868 1-658): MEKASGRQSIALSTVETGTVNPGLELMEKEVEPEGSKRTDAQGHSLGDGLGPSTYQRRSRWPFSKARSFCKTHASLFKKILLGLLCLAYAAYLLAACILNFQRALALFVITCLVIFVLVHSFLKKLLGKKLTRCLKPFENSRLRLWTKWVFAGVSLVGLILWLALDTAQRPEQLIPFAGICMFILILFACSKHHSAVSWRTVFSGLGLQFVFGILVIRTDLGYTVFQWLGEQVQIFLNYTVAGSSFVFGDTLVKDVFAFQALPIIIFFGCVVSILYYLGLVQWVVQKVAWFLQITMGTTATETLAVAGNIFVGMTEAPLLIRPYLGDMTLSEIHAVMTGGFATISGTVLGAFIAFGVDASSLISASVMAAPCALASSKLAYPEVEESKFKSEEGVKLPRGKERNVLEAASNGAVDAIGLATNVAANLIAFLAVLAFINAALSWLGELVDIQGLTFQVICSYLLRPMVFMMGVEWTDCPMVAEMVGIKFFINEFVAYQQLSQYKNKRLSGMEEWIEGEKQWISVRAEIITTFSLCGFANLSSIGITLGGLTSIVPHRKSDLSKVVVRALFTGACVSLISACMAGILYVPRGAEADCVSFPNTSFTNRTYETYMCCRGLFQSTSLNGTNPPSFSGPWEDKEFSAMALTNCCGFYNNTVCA
From the text: Each condition was run in triplicate.

[3] = system: plateable cryopreserved hepatocytes; assay type: in vitro ADME, mouse, rat, dog, monkey, human
Description: Plateable cryopreserved hepatocytes from male CD-1 mouse (Lot# DYF, 81.2% viability), male SD rat (Lot# PMD, 88.1% viability), male Beagle dog (Lot# YTK, 90.0% viability), male Cynomolgus monkey (Lot# GJV, 88.7% viability), and male human (Lot# PDC, 82.9% viability) were purchased from BioIVT (Baltimore, MD). Following vendor’s instructions, the hepatocyte vials were thawed in a 37°C water bath and cells were suspended in 5 mL of corresponding plating media (antibiotic added, rodent media for mouse and rat, dog media for dog, and primate media for monkey and human). The cells were manually counted using Trypan Blue method and were diluted to target concentration (0.35 million/mL for mouse and 0.7 million/mL for other species) with plating media. Diluted cells (500 µL) were then added to Collagen-I coated 24-well plate, distributed evenly, and incubated for 4 h for attaching. Media was changed 4 h prior to compound addition.
After 24 and 48 h, the reaction was stopped by adding 3x volumes of cold acetonitrile to the reaction mixture. Samples were vortexed and centrifuged to precipitate proteins. The supernatants were transferred to clean tubes and dried under a stream of N2 for ∼20 min at ambient temperature to remove most of organic solvent. The remaining liquid was dried by lyophilization. […]

## N#C[C@@]1(c2ccc3c(N)ncnn23)O[C@H](CO)[C@@H](O)[C@H]1O [GS-441524]
[1]
  half-life at 1 µM: 1.02 ± 0.15 h
OCT2
  Substrate of OCT2: not a substrate
OCT1
  Substrate of OCT1: not a substrate
MATE1
  Substrate of MATE1: not a substrate
ENT4
  Difference in uptake compared to control cells: less than 2 fold
[2]
  Stability in cytosolic fractions: stable
  Stability in liver microsomes: stable
CNT2
  Substrate of CNT2: not a substrate; also recorded: unlikely to be a substrate
CNT2; 10 µM
  Uptake compared to control cells: higher than 2 fold
CNT2; 30 and 100 µM
  Uptake compared to control cells: less than 2 fold
[3]
  Glucuronidation and sulfation metabolites in plateable hepatocytes: detected at trace amount
  Phosphorylated metabolites in plateable hepatocytes: no detectable phosphorylated metabolites

From article PMC9424906 (Frontiers in Pharmacology, 2022)
